Laboratory results reported in US7846945B2, “Piperdine-based inhibitors of sodium glucose co-transporter 2 and methods of their use” (Lexicon Pharmaceuticals, Inc., priority 2007, dated 2010).

Target: T1, Human sodium/glucose co-transporter type 2 (SGLT2) (Homo sapiens, UniProt P31639)
T1 construct: HA; expressed in transfected cells
T1 sequence (P31639 1-672): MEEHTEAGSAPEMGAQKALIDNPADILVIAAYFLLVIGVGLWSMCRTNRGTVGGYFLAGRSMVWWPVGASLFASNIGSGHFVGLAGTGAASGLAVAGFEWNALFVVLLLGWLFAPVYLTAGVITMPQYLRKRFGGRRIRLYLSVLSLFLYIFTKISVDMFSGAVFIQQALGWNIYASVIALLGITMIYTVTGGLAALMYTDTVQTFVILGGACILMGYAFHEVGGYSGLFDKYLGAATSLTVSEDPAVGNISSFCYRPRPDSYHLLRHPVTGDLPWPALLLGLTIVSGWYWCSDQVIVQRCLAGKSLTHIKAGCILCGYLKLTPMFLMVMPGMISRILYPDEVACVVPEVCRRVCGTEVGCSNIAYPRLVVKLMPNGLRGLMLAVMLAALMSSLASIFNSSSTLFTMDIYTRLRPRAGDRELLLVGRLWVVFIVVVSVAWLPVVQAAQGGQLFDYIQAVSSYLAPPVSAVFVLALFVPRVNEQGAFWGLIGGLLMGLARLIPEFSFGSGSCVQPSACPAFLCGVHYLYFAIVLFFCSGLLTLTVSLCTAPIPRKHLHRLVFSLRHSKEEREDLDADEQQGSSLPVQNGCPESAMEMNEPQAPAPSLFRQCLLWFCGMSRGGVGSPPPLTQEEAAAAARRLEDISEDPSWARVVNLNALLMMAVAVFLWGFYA
Experiment: In vitro human SGLT2 inhibition assay (14C-AMG uptake)
Assay type: cell-based
Details: HEK293 cells expressing human HA-SGLT2; potent = SGLT2 IC50 of less than about 500 nM; read-out: SGLT2 IC50 (potent SGLT2 inhibitor mark)
Description: HEK293 cells were transfected with the human HA-SGLT2-pIRESpuro2 vector and the bulk stable cell line was selected in presence of 0.5 μg/ml of puromycin. Human HA-SGLT2 cells were maintained in DMEM media containing 10% FBS, 1% GPS and 0.5 μg/ml of puromycin.
The HEK293 cells expressing the human HA-SGLT2 were seeded in 384 well plates (30,000 cells/well) in DMEM media containing 10% FBS, 1% GPS and 0.5 μg/ml of puromycin, then incubated overnight at 37 C, 5% CO2. Cells were then washed with uptake buffer (140 mM NaCl, 2 mM KCl, 1 mM CaCl2, 1 mM MgCl2, 10 mM HEPES, 5 mM Tris, 1 mg/ml bovine serum albumin (BSA), pH 7.3). Twenty microliters of uptake buffer with or without testing compounds were added to the cells. Then, 20 microliters of uptake buffer containing ^14C-AMG (100 nCi) were added to the cells. The cell plates were incubated at 37° C., 5% CO2 for 1-2 hours. After washing the cells with uptake buffer, scintillation fluid was added (40 microliters/well) and ^14C-AMG uptake was measured by counting radioactivity using a scintillation coulter (TopCoulter NXT; Packard Instruments).
The IC50 of a compound with regard to a given target is determined by fitting the relevant data, using the Levenburg Marquardt algorithm, to the equation: y=A+((B−A)/(1+((C/x)^D))) wherein A is the minimum y value; B is the maximum y value; C is the IC50; and D is the slope.

| SMILES | IC50 [nM] |
| --- | --- |
| CCCSC1O[C@@H](c2ccc(Cl)c(Cc3ccc(OCC)cc3)c2)[C@H](O)[C@@H](O)[C@@H]1O (stereo partly drawn) [(2S,3R,4R,5S)-2-[4-Chloro-3-(4-ethoxy-benzyl)-phenyl]-6-propylsulfanyl-tetrahydro-pyran-3,4,5-triol] | < 500 |
| CCOc1ccc(Cc2cc([C@@H]3O[C@H](SCCO)[C@@H](O)[C@H](O)[C@H]3O)ccc2Cl)cc1 [(2S,3R,4R,5S,6R)-2-[4-Chloro-3-(4-ethoxy-benzyl)-phenyl]-6-(2-hydroxy-ethylsulfanyl)-tetrahydro-pyran-3,4,5-triol] | < 500 |
| CCOc1ccc(Cc2cc([C@@H]3O[C@H]([S+]([O-])CC)[C@@H](O)[C@H](O)[C@H]3O)ccc2Cl)cc1 (stereo partly drawn) [(2S,3R,4R,5S,6R)-2-[4-Chloro-3-(4-ethoxy-benzyl)-phenyl]-6-ethanesulfinyl-tetrahydro-pyran-3,4,5-triol] | < 500 |
| CCOc1ccc(Cc2cc([C@H]3[C@H](O)[C@@H](O)[C@H](O)CN3Cc3ccccc3)ccc2Cl)cc1 [(2S,3S,4S,5R)-1-Benzyl-2-[4-chloro-3-(4-ethoxy-benzyl)-phenyl]-piperidine-3,4,5-triol] | < 500 |
| CCOc1ccc(Cc2cc([C@@H]3O[C@H](SCc4ccco4)[C@@H](O)[C@H](O)[C@H]3O)ccc2Cl)cc1 [(2S,3R,4R,5S,6R)-2-[4-Chloro-3-(4-ethoxy-benzyl)-phenyl]-6-(furan-2-ylmethylsulfanyl)-tetrahydro-pyran-3,4,5-triol] | < 500 |
| COC1O[C@@H](c2ccc(Cl)c(Cc3ccc(OC4CCOCC4)cc3)c2)[C@H](O)[C@@H](O)[C@@H]1O (stereo partly drawn) [(2S,3R,4R,5S)-2-{4-Chloro-3-[4-(tetrahydro-pyran-4-yloxy)-benzyl]-phenyl}-6-methoxy-tetrahydro-pyran-3,4,5-triol] | < 500 |
| COC1O[C@@H](c2ccc(Cl)c(Cc3ccc(OC4CCN(C)CC4)cc3)c2)[C@H](O)[C@@H](O)[C@@H]1O (stereo partly drawn) [(2S,3R,4R,5S)-2-{4-Chloro-3-[4-(1-methyl-piperidin-4-yloxy)-benzyl]-phenyl}-6-methoxy-tetrahydro-pyran-3,4,5-triol] | < 500 |
| CCOc1ccc(Cc2cc([C@@H]3O[C@H](SC[C@H](N)C(=O)O)[C@@H](O)[C@H](O)[C@H]3O)ccc2Cl)cc1 [(R)-2-Amino-3-{(2R,3S,4R,5R,6S)-6-[4-chloro-3-(4-ethoxy-benzyl)-phenyl]-3,4,5-trihydroxy-tetrahydro-pyran-2-ylsulfanyl}-propionic acid] | < 500 |
| CCOc1ccc(Cc2cc([C@@H]3OC(OCCS)[C@@H](O)[C@H](O)[C@H]3O)ccc2Cl)cc1 (stereo partly drawn) [(2S,3R,4R,5S)-2-[4-Chloro-3-(4-ethoxy-benzyl)-phenyl]-6-(2-mercapto-ethoxy)-tetrahydro-pyran-3,4,5-triol] | < 500 |
| COC1O[C@@H](c2ccc(Cl)c(Cc3ccc(OC(=S)N(C)C)cc3)c2)[C@H](O)[C@@H](O)[C@@H]1O (stereo partly drawn) [Dimethyl-thiocarbamic acid O-{4-[2-chloro-5-((2S,3R,4R,5S)-3,4,5-trihydroxy-6-methoxy-tetrahydro-pyran-2-yl)-benzyl]-phenyl} ester] | < 500 |
| COC1O[C@@H](c2cccc(Cc3ccc(OCCO)cc3)c2)[C@H](O)[C@@H](O)[C@@H]1O (stereo partly drawn) [(2S,3R,4R,5S)-2-{3-[4-(2-Hydroxy-ethoxy)-benzyl]-phenyl}-6-methoxy-tetrahydro-pyran-3,4,5-triol] | < 500 |
| CCOc1ccc(Cc2cc([C@@H]3OC(OCC(F)(F)F)[C@@H](O)[C@H](O)[C@H]3O)ccc2Cl)cc1 (stereo partly drawn) [(2S,3R,4R,5S)-2-[4-Chloro-3-(4-ethoxy-benzyl)-phenyl]-6-(2,2,2-trifluoro-ethoxy)-tetrahydro-pyran-3,4,5-triol] | < 500 |
| CCOc1ccc(Cc2cc([C@H]3[C@H](O)[C@@H](O)[C@H](O)CN3CC(C)C)ccc2Cl)cc1 [(2S,3S,4S,5R)-2-[4-Chloro-3-(4-ethoxy-benzyl)-phenyl]-1-isobutyl-piperidine-3,4,5-triol] | < 500 |
| COC1O[C@@H](c2ccc(Cl)c(Cc3ccc(O[C@H]4CCN(C)C4)cc3)c2)[C@H](O)[C@@H](O)[C@@H]1O (stereo partly drawn) [(2S,3R,4R,5S)-2-{4-Chloro-3-[4-((S)-1-methyl-pyrrolidin-3-yloxy)-benzyl]-phenyl}-6-methoxy-tetrahydro-pyran-3,4,5-triol] | < 500 |
| CCOc1ccc(Cc2cc([C@@H]3O[C@H](SCC(F)(F)F)[C@@H](O)[C@H](O)[C@H]3O)ccc2Cl)cc1 [(2S,3R,4R,5S,6R)-2-[4-Chloro-3-(4-ethoxy-benzyl)-phenyl]-6-(2,2,2-trifluoro-ethylsulfanyl)-tetrahydro-pyran-3,4,5-triol] | < 500 |
| CCOc1ccc(Cc2cc([C@@H]3O[C@H](SC)[C@@H](O)[C@H](O)[C@H]3O)ccc2Cl)cc1 [(2S,3R,4R,5S,6R)-2-[4-Chloro-3-(4-ethoxy-benzyl)-phenyl]-6-methylsulfanyl-tetrahydro-pyran-3,4,5-triol] | < 500 |
| COC1O[C@@H](c2ccc(Cl)c(Cc3ccc(OCCOCc4ccccc4)cc3)c2)[C@H](O)[C@@H](O)[C@@H]1O (stereo partly drawn) [(2S,3R,4R,5S)-2-{3-[4-(2-Benzyloxy-ethoxy)-benzyl]-4-chloro-phenyl}-6-methoxy-tetrahydro-pyran-3,4,5-triol] | < 500 |
| CCOc1ccc(Cc2cc([C@@H]3O[C@H](Oc4ccccc4)[C@@H](O)[C@H](O)[C@H]3O)ccc2Cl)cc1 [(2S,3R,4R,5S,6R)-2-[4-Chloro-3-(4-ethoxy-benzyl)-phenyl]-6-phenoxy-tetrahydro-pyran-3,4,5-triol] | < 500 |
| COC1O[C@@H](c2ccc(Cl)c(Cc3ccc(Oc4ccncc4)cc3)c2)[C@H](O)[C@@H](O)[C@@H]1O (stereo partly drawn) [(2S,3R,4R,5S)-2-{4-Chloro-3-[4-(pyridin-4-yloxy)-benzyl]-phenyl}-6-methoxy-tetrahydro-pyran-3,4,5-triol] | < 500 |

The remaining lines, values ahead:

| IC50 [nM] | SMILES |
| --- | --- |
| < 500 | CCOc1ccc(Cc2cc([C@@H]3OC(OC)[C@@H](O)[C@H](O)[C@H]3O)ccc2C)cc1 (stereo partly drawn) [(2S,3R,4R,5S)-2-[3-(4-Ethoxy-benzyl)-4-methyl-phenyl]-6-methoxy-tetrahydro-pyran-3,4,5-triol] |
| < 500 | CCOc1ccc(Cc2cccc([C@@H]3OC(OC)[C@@H](O)[C@H](O)[C@H]3O)c2)cc1 (stereo partly drawn) [(2S,3R,4R,5S)-2-[3-(4-Ethoxy-benzyl)-phenyl]-6-methoxy-tetrahydro-pyran-3,4,5-triol] |
| < 500 | COC1O[C@@H](c2ccc(Cl)c(Cc3ccc(OCCSC)cc3)c2)[C@H](O)[C@@H](O)[C@@H]1O (stereo partly drawn) [(2S,3R,4R,5S)-2-{4-Chloro-3-[4-(2-methylsulfanyl-ethoxy)-benzyl]-phenyl}-6-methoxy-tetrahydro-pyran-3,4,5-triol] |
| < 500 | COC1O[C@@H](c2ccc(Cl)c(Cc3ccc(OCCO)cc3)c2)[C@H](O)[C@@H](O)[C@@H]1O (stereo partly drawn) [(2S,3R,4R,5S)-2-{4-Chloro-3-[4-(2-hydroxy-ethoxy)-benzyl]-phenyl}-6-methoxy-tetrahydro-pyran-3,4,5-triol] |
| < 500 | CCOc1ccc(C(O)c2cc([C@@H]3O[C@H](OC)[C@@H](O)[C@H](O)[C@H]3O)ccc2Cl)cc1 (stereo partly drawn) [(2S,3R,4R,5S,6S)-2-{4-Chloro-3-[(4-ethoxy-phenyl)-hydroxy-methyl]-phenyl}-6-methoxy-tetrahydro-pyran-3,4,5-triol] |
| < 500 | CCOc1ccc(C(=O)c2cc([C@@H]3O[C@H](OC)[C@@H](O)[C@H](O)[C@H]3O)ccc2Cl)cc1 [[2-Chloro-5-((2S,3R,4R,5S,6S)-3,4,5-trihydroxy-6-methoxy-tetrahydro-pyran-2-yl)-phenyl]-(4-ethoxy-phenyl)-methanone] |
| < 500 | CCOc1ccc(-c2cccc([C@@H]3OC(OC)[C@@H](O)[C@H](O)[C@H]3O)c2)cc1 (stereo partly drawn) [(2S,3R,4R,5S)-2-(4′-Ethoxy-biphenyl-3-yl)-6-methoxy-tetrahydro-pyran-3,4,5-triol] |
| < 500 | COc1ccc(Sc2cc([C@@H]3OC(OC)[C@@H](O)[C@H](O)[C@H]3O)ccc2Cl)cc1 (stereo partly drawn) [(2S,3R,4R,5S)-2-[4-Chloro-3-(4-methoxy-phenylsulfanyl)-phenyl]-6-methoxy-tetrahydro-pyran-3,4,5-triol] |
